Measured values: US11052043B2, “Sustained-release injectable formulation” (YISSUM RESEARCH DEVELOPMENT COMPANY OF THE HEBREW …, priority 2011, dated 2021)
Converted amounts (≈) assume the structure as drawn.

Columns and labels:
[1] = Minimum inhibitory concentration (MIC) of amoxicillin; assay type: cell-based; settings: in vitro MIC multiplied by a factor of 4
[2] = cited from earlier work
[3] = cited from earlier work; remark: listed apart in the source

Question: For `CC1(C)S[C@@H]2[C@H](NC(=O)[C@H](N)c3ccc(O)cc3)C(=O)N2[C@H]1C(=O)O` [amoxicillin], which “in vivo minimum inhibitory concentration (MIC) as set” value [1] is on record?
Answer: Its value is 0.4 µg/mL.

Question: And the “MIC value determined in vitro” value [2]?
Answer: The value was 0.1 µg/mL (≈ 0.274 µM).

Question: Which solubility of enrofloxacin ([3]; 25° C.) does the source give for `CCN1CCN(c2cc3c(cc2F)c(=O)c(C(=O)O)cn3C2CC2)CC1` [enrofloxacin] here?
Answer: The solubility of enrofloxacin was 0.25 % (w/v).

Question: With `C=CC1=C(C(=O)O)N2C(=O)[C@@H](NC(=O)/C(=N\O)c3csc(N)n3)[C@H]2SC1` [cefdinir] as the compound, how does the solubility of cefdinir ([3]; 30° C.) read?
Answer: Its solubility of cefdinir is 0.43 % (w/v).
